The target of this assay is Human DGAT2 (hDGAT2) (Homo sapiens (Human), UniProt Q96PD7). As to the kind of experiment: In vitro DGAT2 assay, IC50 determination with hDGAT2 membrane fraction. The class given is biochemical. Particulars: read-out: DGAT2 IC50. The method, then:
Recombinant baculovirus for the FLAG-tagged hDGAT2 was generated in SF9 insect cells using Bac-to-Bac baculovirus expression system (Invitrogen) according to the manufacturer's protocol. For the expression of hDGAT2, SF9 cells (20 L) grown in Sf900II media were infected with hDGAT2 baculovirus at a multiplicity of infection of 1 in a Wave Bioreactor System 20/50P wave bag (GE Healthcare). After 40 hours of infection, the cells were then harvested by centrifugation at 5,000×g. The cell pellets were washed by resuspending in phosphate buffered saline (PBS) and collected by centrifugation at 5,000×g. The cell paste was flash frozen in liquid N2 and stored at −80° C. until needed. All operations below were at 4° C. unless otherwise noted. The cells were resuspended in lysis buffer (50 mM Tris-HCl, pH 8.0, 250 mM sucrose) including 1 mM ethylenediaminetetraacetic acid (EDTA) and the complete protease inhibitor cocktail (Roche Diagnostics) at a ratio of 3 ml buffer per 1 g cell paste. The cells were lysed by dounce homogenizer. The cell debris was removed by centrifugation at 1,000×g for 20 min, and the supernatant was centrifuged at 100,000×g for 1 hour. The resulting pellet was rinsed three times by filling ultracentrifuge tubes to the top with ice cold PBS before decanting. The washed pellet was resuspended with gentle stirring for 1 hour in lysis buffer containing 8 mM 3-[(3-cholamidopropyl)dimethylammonio]-1-propanesulfonate (CHAPS) at a ratio of 1 mL buffer per 1 g of original cell paste and centrifuged again at 100,000×g for 1 hour. The resulting supernatant (hDGAT2 membrane fraction) was aliquotted, flash frozen in liquid N2, and stored at −80° C. until use.
To 1 μL of compounds dissolved in 100% DMSO and spotted at the bottom of each well, 5 μL of 0.04% bovine serum albumin (BSA) (fatty acid free, Sigma Aldrich) was added and the mixture was incubated at room temperature for 20 minutes. To this mixture, 10 μL of hDGAT2 membrane fraction (0.01 mg/mL) diluted in 100 mM Hepes-NaOH, pH 7.4, 20 mM MgCl2 containing 200 nM methyl arachidonyl fluorophosphonate (Cayman Chemical; dried from ethyl acetate stock solution under argon gas and dissolved in DMSO as 5 mM stock) was added. […] The reaction mixtures were incubated at room temperature for 40 min and the reactions were stopped by addition of 5 μL of 1% H3PO4. After the addition of 45 μL MicroScint-E (Perkin-Elmer), plates were sealed with Top Seal-A covers (Perkin-Elmer) and phase partitioning of substrates and products was achieved using a HT-91100 microplate orbital shaker (Big Bear Automation, Santa Clara, Calif.). Plates were centrifuged at 2,000×g for 1 min in an Allegra 6R Centrifuge (Beckman Coulter) and then were sealed again with fresh covers before reading in a 1450 Microbeta Wallac Trilux Scintillation Counter (Perkin Elmer). DGAT2 activity was measured by quantifying the generated product [^14C]tridecanoylglycerol in the upper organic phase.
Inhibitors were tested at eleven different concentrations to generate IC50 values for each compound. […] Results are reported as geometric mean IC50 values.

[1] abbreviates: geometric mean, background for complete inhibition of DGAT2 obtained with 50 μM (1R,2R)-2-({3′-Fluoro-4′-[(6-fluoro-1,3-benzothiazol-2-yl)amino]-1,1′-biphenyl-4-yl}carbonyl)cyclopentanecarboxylic acid.

Where two headings read alike, the source gives them in different places.

A word on the IC50: it is the concentration at which inhibition is half-maximal.

Human DGAT2 (hDGAT2), sequence (Q96PD7 whole entry): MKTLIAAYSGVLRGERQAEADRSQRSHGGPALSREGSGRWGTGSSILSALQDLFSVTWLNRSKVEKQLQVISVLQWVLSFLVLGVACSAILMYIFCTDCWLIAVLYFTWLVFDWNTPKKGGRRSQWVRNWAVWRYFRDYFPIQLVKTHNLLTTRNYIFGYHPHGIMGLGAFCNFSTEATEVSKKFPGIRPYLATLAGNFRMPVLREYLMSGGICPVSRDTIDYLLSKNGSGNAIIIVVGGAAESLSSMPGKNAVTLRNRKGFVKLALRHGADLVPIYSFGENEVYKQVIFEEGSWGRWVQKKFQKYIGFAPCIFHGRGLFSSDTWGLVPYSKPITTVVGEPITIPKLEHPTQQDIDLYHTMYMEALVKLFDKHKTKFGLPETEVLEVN

In the case of `c1cc(-c2nc3ccc(N4CCCC(c5nnc6n5CCC6)C4)nc3[nH]2)nc(C2CC2)c1` (racemic) [Example 169, 2-(6-Cyclopropylpyridin-2-yl)-5-(3-(6,7-dihydro-5H-pyrrolo[2,1-c][1,2,4]triazol-3-yl)piperidin-1-yl)-3H-imidazo[4,5-b]pyridine], the IC50 under setting [1] came out at 292 nM. For `O=C([C@@H]1CCCN(c2ccc3nc(C4(c5cccnn5)CC4)[nH]c3n2)C1)N1CCCC1` [Example 222, (R)-(1-(2-(1-(Pyridazin-3-yl)cyclopropyl)-3H-imidazo[4,5-b]pyridin-5-yl)piperidin-3-yl)(pyrrolidin-1-yl)methanone], the IC50 under setting [1] came to 531 nM. As to `O=C([C@@H]1CCCN(c2ccc3nc(-c4cccc(C5CC5)n4)[nH]c3n2)C1)N1CCCC1` [Example 182, (R)-(1-(2-(6-Cyclopropylpyridin-2-yl)-3H-imidazo[4,5-b]pyridin-5-yl)piperidin-3-yl)(pyrrolidin-1-yl)methanone], the IC50 under setting [1] came to 6.03 nM. As to `CCOC(=O)CCc1cccc(-c2nc3ccc(N4CCC[C@@H](C(=O)N5CCCC5)C4)nc3[nH]2)c1` [Example 128, (R)-Ethyl 3-(3-(5-(3-(pyrrolidine-1-carbonyl)piperidin-1-yl)-3H-imidazo[4,5-b]pyridin-2-yl)phenyl)propanoate], the IC50 under setting [1] worked out at 7.16 nM. Same read-out and setting: in the case of `O=C([C@@H]1CCCN(c2ncc3nc(-c4cccc(C(F)(F)F)n4)[nH]c3n2)C1)N1CCCC1` [Example 187, (R)-Pyrrolidin-1-yl(1-(8-(6-(trifluoromethyl)pyridin-2-yl)-9H-purin-2-yl)piperidin-3-yl)methanone] it was 10.5 nM. With `Cn1nccc1C1(c2nc3ccc(N4CCC[C@@H](C(=O)N5CCCC5)C4)nc3[nH]2)CC1` [Example 104, (R)-(1-(2-(1-(1-Methyl-1H-pyrazol-5-yl)cyclopropyl)-3H-imidazo[4,5-b]pyridin-5-yl)piperidin-3-yl)(pyrrolidin-1-yl)methanone], the IC50 under setting [1] came out at 190 nM. With `O=C([C@@H]1CCCN(c2ccc3nc(COc4ccc(Cl)cc4)[nH]c3n2)C1)N1CCCC1` [Example 48], the IC50 under setting [1] came out at 10.7 nM.

On to `O=C([C@H]1CN(c2ccc3nc(-c4cncc(C5CC5)n4)[nH]c3n2)CCO1)N1CCCC1` [Example 146, (R)-(4-(2-(6-Cyclopropylpyrazin-2-yl)-3H-imidazo[4,5-b]pyridin-5-yl)morpholin-2-yl)(pyrrolidin-1-yl)methanone], for which, under setting [1], the half-maximal inhibitory concentration (IC50) came out at 401 nM. With `O=C([C@@H]1CCCN(c2ccc3nc(-c4cnn(-c5ccccc5)c4)[nH]c3n2)C1)N1CCCC1` [Example 9, (R)-(1-(2-(1-Phenyl-1H-pyrazol-4-yl)-3H-imidazo[4,5-b]pyridin-5-yl)piperidin-3-yl)(pyrrolidin-1-yl)methanone], the IC50 under setting [1] turned out to be 22.1 nM. As to `CCN(CC)C(=O)c1nc2ccc(N3CCC[C@@H](C(=O)N4CCCC4)C3)nc2[nH]1` [Example 129, (R)—N,N-Diethyl-5-(3-(pyrrolidine-1-carbonyl)piperidin-1-yl)-3H-imidazo[4,5-b]pyridine-2-carboxamide], the IC50 under setting [1] turned out to be 4540 nM. The same measure, in the same setting: the result for `O=C([C@@H]1CCCN(c2ccc3nc(C4(Cc5ccccc5)COC4)[nH]c3n2)C1)N1CCCC1` [Example 85, (R)-(1-(2-(3-Benzyloxetan-3-yl)-3H-imidazo[4,5-b]pyridin-5-yl)piperidin-3-yl)(pyrrolidin-1-yl)methanone] reads 1160 nM; that for `Cc1cc(N2CCC[C@@H](C(=O)N3CCCC3)C2)nc2[nH]c(-c3ccnc(C4CC4)n3)nc12` [Example 162, (R)-(1-(2-(2-Cyclopropylpyrimidin-4-yl)-7-methyl-3H-imidazo[4,5-b]pyridin-5-yl)piperidin-3-yl)(pyrrolidin-1-yl)methanone], 434 nM. For the molecule `Cc1ccnn1C1(c2nc3ccc(N4CCC[C@@H](C(=O)N5CCCC5)C4)nc3[nH]2)CC1` [Example 90, (R)-(1-(2-(1-(5-methyl-1H-pyrazol-1-yl)cyclopropyl)-3H-imidazo[4,5-b]pyridin-5-yl)piperidin-3-yl)(pyrrolidin-1-yl)methanone], under setting [1], the 50% inhibitory concentration (IC50) came to 315 nM.

In the case of `O=C([C@@H]1CCCN(c2ncc3nc(C4(n5cccn5)CC4)[nH]c3n2)C1)N1CCCC1` [Example 210, (R)-(1-(8-(1-(1H-Pyrazol-1-yl)cyclopropyl)-9H-purin-2-yl)piperidin-3-yl)(pyrrolidin-1-yl)methanone], the IC50 under setting [1] amounted to 342 nM. Take `Cc1cc(C2(c3nc4ccc(N5CCC[C@@H](C(=O)N6CCCC6)C5)nc4[nH]3)CC2)no1` [Example 87, (R)-(1-(2-(1-(5-Methylisoxazol-3-yl)cyclopropyl)-3H-imidazo[4,5-b]pyridin-5-yl)piperidin-3-yl)(pyrrolidin-1-yl)methanone]: the IC50 under setting [1] was 102 nM. On to `O=C([C@@H]1CCCN(c2ccc3nc(-c4cccc(-n5cccn5)c4)[nH]c3n2)C1)N1CCCC1` [Example 3, (R)-(1-(2-(3-(1H-Pyrazol-1-yl)phenyl)-3H-imidazo[4,5-b]pyridin-5-yl)piperidin-3-yl)(pyrrolidin-1-yl)methanone], for which the IC50 under setting [1] came to 4.82 nM. Regarding `CCN(C)C(=O)[C@@H]1CCCN(c2ccc3nc(-c4ccnc(C5CC5)n4)[nH]c3n2)C1` [Example 185, (R)-1-(2-(2-Cyclopropylpyrimidin-4-yl)-3H-imidazo[4,5-b]pyridin-5-yl)-N-ethyl-N-methylpiperidine-3-carboxamide], the 50% inhibitory concentration (IC50) under setting [1] was determined as 231 nM. Consider `O=C([C@@H]1CCCN(c2ccc3nc(C4(n5cc(Cl)cn5)CC4)[nH]c3n2)C1)N1CCOCC1` [Example 206, (R)-(1-(2-(1-(4-Chloro-1H-pyrazol-1-yl)cyclopropyl)-3H-imidazo[4,5-b]pyridin-5-yl)piperidin-3-yl)(morpholino)methanone], for which, under setting [1], the IC50 was 246 nM. `O=C([C@@H]1CCCN(c2ccc3nc(-c4ccnc(N5CCCC5)n4)[nH]c3n2)C1)N1CCCC1` [Example 10, (R)-Pyrrolidin-1-yl(1-(2-(2-(pyrrolidin-1-yl)pyrimidin-4-yl)-3H-imidazo[4,5-b]pyridin-5-yl)piperidin-3-yl)methanone]: under setting [1], the concentration for half-maximal inhibition (IC50) came to 29.2 nM. For the molecule `O=C([C@@H]1CCCN(c2ccc3nc(-c4cccc(OC(F)F)n4)[nH]c3n2)C1)N1CCCC1` [Example 121, (R)-(1-(2-(6-(Difluoromethoxy)pyridin-2-yl)-3H-imidazo[4,5-b]pyridin-5-yl)piperidin-3-yl)(pyrrolidin-1-yl)methanone], the IC50 under setting [1] is 14.3 nM. Turning to `O=C([C@@H]1CCCN(c2ccc3nc(-c4cccc(N5CCC5)n4)[nH]c3n2)C1)N1CCCC1` [Example 120, (R)-(1-(2-(6-(Azetidin-1-yl)pyridin-2-yl)-3H-imidazo[4,5-b]pyridin-5-yl)piperidin-3-yl)(pyrrolidin-1-yl)methanone], the IC50 under setting [1] came to 21.5 nM. Turning to `Clc1cccc(-c2nc3ccc(N4CCO[C@@H](c5ccccn5)C4)nc3[nH]2)c1` [Example 152, (R)-4-(2-(3-chlorophenyl)-3H-imidazo[4,5-b]pyridin-5-yl)-2-(pyridin-2-yl)morpholine], the IC50 was determined as 285 nM. With `CC(C)COC(=O)N1CCCC(c2nc3ccc(N4CCC[C@@H](C(=O)N5CCCC5)C4)nc3[nH]2)C1` (stereo in doubt) [Example 61, (R)-iso-Butyl 3-(5-(3-(pyrrolidine-1-carbonyl)piperidin-1-yl)-3H-imidazo[4,5-b]pyridine-2-yl)piperidine-1-carboxylate], under setting [1], the half-inhibitory concentration (IC50) is 86.4 nM. Turning to `c1cc(-c2nc3ccc(N4CCC[C@H](c5ncc6n5CCC6)C4)nc3[nH]2)nc(C2CC2)n1` [Example 135, (S)-2-(2-cyclopropylpyrimidin-4-yl)-5-(3-(6,7-dihydro-5H-pyrrolo[1,2-c]imidazol-3-yl)piperidin-1-yl)-3H-imidazo[4,5-b]pyridine], the IC50 under setting [1] stood at 4240 nM. Take `CNS(=O)(=O)c1cncc(-c2nc3ccc(N4CCC[C@@H](C(=O)N5CCCC5)C4)nc3[nH]2)c1` [Example 100, (R)-N-Methyl-5-(5-(3-(pyrrolidine-1-carbonyl)piperidin-1-yl)3H-imidazo[4,5-b]pyridin-2-yl)pyridine-3-sulfonamide]: the IC50 under setting [1] turned out to be 47.8 nM.

Source of the values: US9296745B2, “Diacylglycerol acyltransferase 2 inhibitors” (Pfizer Inc., priority 2012, dated 2016).
